Measured values published in ChEMBL document CHEMBL1201862, “PubChem BioAssay data set” (2004).
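Grown in 96-well plates, cells were treated for 48 hours with each compound at five concentrations. Insufficient inhibition: endpoint recorded as highest concentration tested. Abbreviation: GI50, concentration required for 50% inhibition of growth.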 Activity calls are given as the source filed them. Cut-off read from the data, not from the text of the source: active = GI50 up to about 1.1 µM and inactive = higher.

Tests used:
Assay in all cases: inhibition of tumour cell growth, NCI panel, 48 h
786-0 = tested on: 786-0
A498 = tested on: A498
A549 = tested on: A549
ACHN = tested on: ACHN
BT-549 = tested on: BT-549
CAKI-1 = tested on: CAKI-1
CCRF-CEM = tested on: CCRF-CEM
COLO 205 = tested on: COLO 205
DU-145 = tested on: DU-145
EKVX = tested on: EKVX
HCC 2998 = tested on: HCC 2998
HCT-116 = tested on: HCT-116
HCT-15 = tested on: HCT-15
HL-60 = tested on: HL-60
HOP-62 = tested on: HOP-62
HOP-92 = tested on: HOP-92
HT-29 = tested on: HT-29
Hs-578T = tested on: Hs-578T
IGROV-1 = tested on: IGROV-1
K562 = tested on: K562
KM12 = tested on: KM12
LOX IMVI = tested on: LOX IMVI
M14 = tested on: M14
MCF7 = tested on: MCF7
MDA-MB-231 = tested on: MDA-MB-231
MDA-MB-435 = tested on: MDA-MB-435
MDA-N = tested on: MDA-N
MOLT-4 = tested on: MOLT-4
Malme-3M = tested on: Malme-3M
NCI-H226 = tested on: NCI-H226
NCI-H23 = tested on: NCI-H23
NCI-H460 = tested on: NCI-H460
NCI-H522 = tested on: NCI-H522
NCI/ADR-RES = tested on: NCI/ADR-RES
OVCAR-3 = tested on: OVCAR-3
OVCAR-4 = tested on: OVCAR-4
OVCAR-5 = tested on: OVCAR-5
OVCAR-8 = tested on: OVCAR-8
PC-3 = tested on: PC-3
RPMI-8226 = tested on: RPMI-8226
RXF 393 = tested on: RXF 393
SF-268 = tested on: SF-268
SF-295 = tested on: SF-295
SF-539 = tested on: SF-539
SK-MEL-28 = tested on: SK-MEL-28
SK-MEL-2 = tested on: SK-MEL-2
SK-MEL-5 = tested on: SK-MEL-5
SK-OV-3 = tested on: SK-OV-3
SN12C = tested on: SN12C
SNB-19 = tested on: SNB-19
SNB-75 = tested on: SNB-75
SR = tested on: SR
SW-620 = tested on: SW-620
T47D = tested on: T47D
TK-10 = tested on: TK-10
U-251 = tested on: U-251
UACC-257 = tested on: UACC-257
UACC-62 = tested on: UACC-62
UO-31 = tested on: UO-31

`CN1Cc2c(ccc3c2OCO3)[C@@H]2[C@H](O)Cc3cc4c(cc3[C@@H]21)OCO4` was tested, and the GI50 (786-0) was 4.09 µM (inactive), the GI50 (A498) was 2.17 µM (inactive) and the GI50 (A549) was 4.15 µM (inactive). For the same compound, the GI50 (ACHN) was 11 µM (inactive), the GI50 (BT-549) was 2.55 µM (inactive) and the GI50 (CAKI-1) was 4.89 µM (inactive). The GI50 (CCRF-CEM) was 2.82 µM (inactive), the GI50 (COLO 205) was 2.2 µM (inactive) and the GI50 (DU-145) was 4.4 µM (inactive). For the same compound, the GI50 (EKVX) was 4.51 µM (inactive), the GI50 (HCC 2998) was 2.11 µM (inactive) and the GI50 (HCT-116) was 3.4 µM (inactive). For the same compound, the GI50 (HCT-15) was 2.02 µM, the GI50 (HL-60) was 1.46 µM (inactive) and the GI50 (HOP-62) was 3.09 µM (inactive). For the same compound, the GI50 (HOP-92) was 46.5 µM (inactive), the GI50 (HT-29) was 2.14 µM (inactive) and the GI50 (Hs-578T) was 3.59 µM (inactive). The GI50 (IGROV-1) was 3.87 µM (inactive), the GI50 (K562) was 2.61 µM (inactive) and the GI50 (KM12) was 2.48 µM (inactive). For the same compound, the GI50 (LOX IMVI) was 4.51 µM (inactive), the GI50 (M14) was 2.2 µM (inactive) and the GI50 (MCF7) was 2.11 µM (inactive). The GI50 (MDA-MB-231) was 3.29 µM (inactive), the GI50 (MDA-MB-435) was 0.52 µM (active) and the GI50 (MDA-N) was 0.435 µM (active). The GI50 (MOLT-4) was 3.08 µM (inactive), the GI50 (Malme-3M) was 4.63 µM (inactive) and the GI50 (NCI-H226) was 3.01 µM (inactive). For the same compound, the GI50 (NCI-H23) was 3.31 µM (inactive), the GI50 (NCI-H460) was 3.01 µM (inactive) and the GI50 (NCI-H522) was 2.92 µM (inactive). For the same compound, the GI50 (NCI/ADR-RES) was 2.35 µM (inactive), the GI50 (OVCAR-3) was 2.2 µM (inactive) and the GI50 (OVCAR-4) was > 86.7 µM (inactive). The GI50 (OVCAR-5) was 12.1 µM (inactive), the GI50 (OVCAR-8) was 3.62 µM (inactive) and the GI50 (PC-3) was 2.66 µM (inactive). For the same compound, the GI50 (RPMI-8226) was 4.39 µM (inactive), the GI50 (RXF 393) was 2.72 µM (inactive) and the GI50 (SF-268) was 4.82 µM (inactive). For the same compound, the GI50 (SF-295) was 2.14 µM (inactive), the GI50 (SF-539) was 2.07 µM (inactive) and the GI50 (SK-MEL-28) was 4.98 µM (inactive). For the same compound, the GI50 (SK-MEL-2) was 2.68 µM (inactive), the GI50 (SK-MEL-5) was 1.41 µM (inactive) and the GI50 (SK-OV-3) was 3.16 µM (inactive). For the same compound, the GI50 (SN12C) was 5.06 µM (inactive), the GI50 (SNB-19) was 3.41 µM (inactive) and the GI50 (SNB-75) was 2.62 µM (inactive). The GI50 (SR) was 4.15 µM (inactive), the GI50 (SW-620) was 3.62 µM (inactive) and the GI50 (T47D) was 9.23 µM (inactive). For the same compound, the GI50 (TK-10) was 5.46 µM (inactive), the GI50 (U-251) was 3.19 µM (inactive) and the GI50 (UACC-257) was 5.26 µM (inactive). The GI50 (UACC-62) was 3.05 µM (inactive) and the GI50 (UO-31) was 6.28 µM (inactive).
